# Assay results reported in US7049313B2, “ATM inhibitors” (Kudos Pharmaceuticals Ltd., priority 2002, dated 2006).
# Structures can show the parent of a compound that is named as a salt.
# Target: T1, ATM (Homo sapiens, UniProt Q13315)
# T1 construct: ATM protein was immunoprecipitated from HeLa cell nuclear extract; endogenous in cells; host or cells: HeLa cell nuclear extract (immunoprecipitate)
# Test: In vitro ATM inhibition assay (phosphorylation of GSTp53N66 on serine 15)
# Assay type: biochemical
# Method: In vitro ATM inhibition Assays
# In order to assess the inhibitory action of the compounds against ATM in vitro, the following assay was used to determine IC50 values.
# ATM protein was immunoprecipitated from HeLa cell nuclear extract using rabbit polyclonal anti-sera raised to the C-terminal ˜500 amino-acid residues of the human ATM protein. The immunoprecipitation was performed according to the methodology described by Banin, S. et al. (1998). 10 μl of immunoprecipitated ATM in Buffer C (50 mM Hepes, pH 7.4, 6 mM MgCl2, 150 mM NaCl, 0.1 mM sodium orthovanadate, 4 mM MnCl2, 0.1 mM dithiothreitol, 10% glycerol) was added to 32.5 μl of buffer C containing 1 μg of the ATM substrate GSTp53N66 in a V-bottomed 96 well polypropylene plate. The GSTp53N66 substrate is the amino terminal 66 amino acid residues of human wild type p53 fused to glutathione S-transferase. ATM phosphorylates p53 on the residue serine 15 (Banin, S. et al. (1998)). Varying concentrations of inhibitor were then added. […] After 10 minutes of incubation at 37° C., the reactions were initiated by the addition of 5 μl of 500 μM Na-ATP. After 1 hour with shaking at 37° C., 150 μl of phosphate buffered saline (PBS) was added to the reaction and the plate centrifuged at 1500 rpm for 10 minutes. 5 μl of the reaction was then transferred to a 96 well opaque white plate containing 45 μl of PBS to allow the GSTp53N66 substrate to bind to the plate wells. The plate was covered and incubated at room temperature for 1 hour with shaking before discarding the contents. The plate wells were washed twice by the addition of PBS prior to the addition of 3% (w/v) bovine serum albumin (BSA) in PBS. The plate was incubated at room temperature for 1 hour with shaking before discarding the contents and washing twice with PBS. To the wells, 50 μl of a 1:10,000 dilution of primary phosphoserine-15 antibody (Cell Signaling Technology, #9284L) in 3% BSA/PBS was added to detect the phosphorylation event on the serine 15 residue of p53 elicited by the ATM kinase. After 1 hour of incubation at room temperature with shaking, the wells were washed four times with PBS prior to the addition of an anti-rabbit HRP conjugated secondary antibody (Pierce, 31462) with shaking for 1 hour at room temperature. The wells were then washed four times with PBS before the addition of chemiluminescence reagent (NEN Renaissance, NEL105). The plate was then shaken briefly, covered with a transparent plate seal and transferred to a TopCount NXT for chemiluminescent counting. Counts per second, following a one second counting time, were recorded for each reaction.
# The enzyme activity for each compound is then calculated using the following equation: […]
# T1 sequence (Q13315 whole entry): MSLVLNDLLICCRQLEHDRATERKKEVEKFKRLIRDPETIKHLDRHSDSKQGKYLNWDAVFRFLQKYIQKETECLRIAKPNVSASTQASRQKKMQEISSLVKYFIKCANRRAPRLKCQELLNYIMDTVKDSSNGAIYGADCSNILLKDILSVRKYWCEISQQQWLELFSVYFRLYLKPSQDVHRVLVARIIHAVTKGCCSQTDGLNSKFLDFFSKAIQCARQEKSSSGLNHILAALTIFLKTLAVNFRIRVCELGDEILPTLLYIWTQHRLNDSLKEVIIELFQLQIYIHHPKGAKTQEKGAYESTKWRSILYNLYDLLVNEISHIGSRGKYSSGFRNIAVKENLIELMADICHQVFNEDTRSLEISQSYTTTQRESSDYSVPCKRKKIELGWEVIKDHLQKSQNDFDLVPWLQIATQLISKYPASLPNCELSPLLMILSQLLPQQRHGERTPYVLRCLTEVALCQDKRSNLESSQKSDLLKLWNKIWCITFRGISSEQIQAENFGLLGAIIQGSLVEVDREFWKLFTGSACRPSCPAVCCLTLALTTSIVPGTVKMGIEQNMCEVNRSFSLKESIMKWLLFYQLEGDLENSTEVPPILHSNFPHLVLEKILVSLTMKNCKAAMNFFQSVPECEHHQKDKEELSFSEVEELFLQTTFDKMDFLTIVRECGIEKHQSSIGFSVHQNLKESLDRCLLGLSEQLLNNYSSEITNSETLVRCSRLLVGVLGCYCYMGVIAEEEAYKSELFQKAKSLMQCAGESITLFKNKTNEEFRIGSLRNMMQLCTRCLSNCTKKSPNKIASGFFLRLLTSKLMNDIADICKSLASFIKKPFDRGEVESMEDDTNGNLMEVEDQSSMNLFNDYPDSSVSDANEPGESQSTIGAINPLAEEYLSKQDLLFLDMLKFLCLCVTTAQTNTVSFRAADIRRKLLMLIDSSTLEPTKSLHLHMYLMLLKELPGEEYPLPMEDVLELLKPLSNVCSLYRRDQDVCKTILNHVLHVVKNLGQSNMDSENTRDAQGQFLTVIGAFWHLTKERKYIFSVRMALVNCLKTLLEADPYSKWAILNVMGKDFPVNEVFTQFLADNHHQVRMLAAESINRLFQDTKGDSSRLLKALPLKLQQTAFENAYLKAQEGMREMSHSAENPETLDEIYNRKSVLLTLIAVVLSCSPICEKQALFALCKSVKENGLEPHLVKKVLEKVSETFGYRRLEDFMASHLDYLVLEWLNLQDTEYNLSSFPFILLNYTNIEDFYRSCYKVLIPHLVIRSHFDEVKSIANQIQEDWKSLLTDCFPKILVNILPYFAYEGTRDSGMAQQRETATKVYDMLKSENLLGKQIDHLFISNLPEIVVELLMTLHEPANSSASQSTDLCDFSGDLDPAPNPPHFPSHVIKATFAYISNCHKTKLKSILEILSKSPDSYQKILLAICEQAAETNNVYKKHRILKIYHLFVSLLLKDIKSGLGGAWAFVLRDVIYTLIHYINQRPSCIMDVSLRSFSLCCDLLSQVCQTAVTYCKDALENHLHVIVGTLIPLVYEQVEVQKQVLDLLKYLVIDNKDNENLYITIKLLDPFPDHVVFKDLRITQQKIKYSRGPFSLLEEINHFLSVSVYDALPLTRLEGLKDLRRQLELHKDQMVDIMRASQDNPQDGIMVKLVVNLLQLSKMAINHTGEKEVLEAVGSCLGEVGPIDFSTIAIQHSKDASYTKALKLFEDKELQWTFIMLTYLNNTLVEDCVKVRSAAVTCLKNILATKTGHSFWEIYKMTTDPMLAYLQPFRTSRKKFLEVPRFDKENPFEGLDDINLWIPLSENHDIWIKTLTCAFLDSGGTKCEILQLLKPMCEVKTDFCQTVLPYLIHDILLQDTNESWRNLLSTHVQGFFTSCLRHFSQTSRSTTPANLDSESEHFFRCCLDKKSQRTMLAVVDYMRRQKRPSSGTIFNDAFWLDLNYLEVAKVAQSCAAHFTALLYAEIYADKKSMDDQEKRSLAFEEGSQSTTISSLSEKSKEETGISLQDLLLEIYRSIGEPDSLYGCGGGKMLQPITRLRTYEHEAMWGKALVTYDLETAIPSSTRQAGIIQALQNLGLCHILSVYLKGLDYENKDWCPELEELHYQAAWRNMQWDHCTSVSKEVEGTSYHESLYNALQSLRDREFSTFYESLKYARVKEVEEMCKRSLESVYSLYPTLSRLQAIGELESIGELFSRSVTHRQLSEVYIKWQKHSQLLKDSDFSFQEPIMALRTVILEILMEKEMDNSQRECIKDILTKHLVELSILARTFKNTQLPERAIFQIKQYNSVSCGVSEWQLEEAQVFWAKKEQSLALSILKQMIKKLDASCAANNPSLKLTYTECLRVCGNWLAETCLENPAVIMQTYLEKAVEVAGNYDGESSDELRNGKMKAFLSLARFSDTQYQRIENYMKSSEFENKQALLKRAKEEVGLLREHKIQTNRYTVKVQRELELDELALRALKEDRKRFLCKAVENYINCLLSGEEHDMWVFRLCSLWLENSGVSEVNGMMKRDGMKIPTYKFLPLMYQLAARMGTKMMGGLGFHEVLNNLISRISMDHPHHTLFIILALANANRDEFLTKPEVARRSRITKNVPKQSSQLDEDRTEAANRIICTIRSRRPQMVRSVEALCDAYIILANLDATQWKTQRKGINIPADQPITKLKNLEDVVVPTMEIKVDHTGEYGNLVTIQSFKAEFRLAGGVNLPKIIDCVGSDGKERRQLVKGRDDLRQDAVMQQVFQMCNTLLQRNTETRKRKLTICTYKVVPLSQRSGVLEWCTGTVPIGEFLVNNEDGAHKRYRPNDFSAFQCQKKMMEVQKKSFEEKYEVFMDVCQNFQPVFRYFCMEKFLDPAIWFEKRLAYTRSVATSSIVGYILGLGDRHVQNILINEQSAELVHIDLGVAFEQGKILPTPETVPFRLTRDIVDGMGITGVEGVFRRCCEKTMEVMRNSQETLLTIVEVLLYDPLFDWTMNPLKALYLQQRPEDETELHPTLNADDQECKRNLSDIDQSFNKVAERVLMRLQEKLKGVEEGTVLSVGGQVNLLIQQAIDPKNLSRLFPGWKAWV
row,SMILES,IC50 [nM]
1,O=C(NCCN1CCN(Cc2ccccc2)CC1)c1ccc2c(c1)Sc1cccc(-c3cc(=O)cc(N4CCOCC4)o3)c1S2 [Compound 179],< 200
2,O=C(CNCC1CCCO1)Nc1ccc2c(c1)Cc1cccc(-c3cc(=O)cc(N4CCOCC4)o3)c1S2 (stereo not drawn) [Compound 68],< 200
3,CN(CCc1ccccn1)C(=O)c1ccc2c(c1)Sc1cccc(-c3cc(=O)cc(N4CCOCC4)o3)c1S2 [Compound 174],< 200
4,O=C(CSc1ncn[nH]1)Nc1ccc2c(c1)Cc1cccc(-c3cc(=O)cc(N4CCOCC4)o3)c1S2 [Compound 64],< 200
5,O=C(NCc1ccco1)c1ccc2c(c1)Sc1cccc(-c3cc(=O)cc(N4CCOCC4)o3)c1S2 [Compound 150],< 200
6,O=c1cc(-c2ccc(OCCNCCO)c3c2Cc2ccccc2S3)oc(N2CCOCC2)c1 [Compound 93],< 200
7,COC(=O)C(=O)Nc1ccc(-c2cc(=O)cc(N3CCOCC3)o2)c2c1Cc1ccccc1S2 [Compound 116],< 200
8,O=C(CN1CCCCCC1)Nc1ccc2c(c1)Cc1cccc(-c3cc(=O)cc(N4CCOCC4)o3)c1S2 [Compound 61],< 200
9,CC1CN(C(=O)c2ccc3c(c2)Sc2cccc(-c4cc(=O)cc(N5CCOCC5)o4)c2S3)CC(C)O1 (stereo not drawn) [Compound 158],< 200
10,O=C(Nc1ccc2c(c1)Cc1cccc(-c3cc(=O)cc(N4CCOCC4)o3)c1S2)c1ccncc1 [Compound 28],< 200
11,"O=C(O)c1ccc2c(c1)Sc1cccc(-c3cc(=O)cc(N4CCOCC4)o3)c1S2 [Compound 138, 6-(6-Morpholin-4-yl-4-oxo-4H-pyran-2-yl)-thianthrene-2-carboxylate sodium salt]",< 200
12,O=C(CCNCCO)Nc1ccc2c(c1)Cc1cccc(-c3cc(=O)cc(N4CCOCC4)o3)c1S2 [Compound 74],< 200
13,NCCNCC(=O)Nc1ccc2c(c1)Cc1cccc(-c3cc(=O)cc(N4CCOCC4)o3)c1S2 [Compound 57],< 200
14,"Nc1ccc2c(c1)Cc1cccc(-c3cc(=O)cc(N4CCOCC4)o3)c1S2 [Compound 20, 2-(7-Amino-9H-thioxanthen-4-yl)-6-morpholin-4-yl-pyran-4-one]",< 200
15,O=C(NCCN1CCCCC1)c1ccc2c(c1)Sc1cccc(-c3cc(=O)cc(N4CCOCC4)o3)c1S2 [Compound 166],< 200
16,CC(C)(C)OC(=O)Nc1ccc(-c2cc(=O)cc(N3CCOCC3)o2)c2c1Cc1ccccc1S2 [Compound 127],< 200
17,CC(=O)Oc1ccccc1C(=O)Nc1ccc2c(c1)Cc1cccc(-c3cc(=O)cc(N4CCOCC4)o3)c1S2 [Compound 37],< 200
18,CN1CCN(CCC(=O)Nc2ccc3c(c2)Cc2cccc(-c4cc(=O)cc(N5CCOCC5)o4)c2S3)CC1 [Compound 71],< 200
19,O=C(Nc1ccc(-c2cc(=O)cc(N3CCOCC3)o2)c2c1Cc1ccccc1S2)c1ccc2c(c1)OCO2 [Compound 115],< 200
20,Cc1cc(C(=O)Nc2ccc3c(c2)Cc2cccc(-c4cc(=O)cc(N5CCOCC5)o4)c2S3)no1 [Compound 45],< 200
21,NCC(=O)Nc1ccc2c(c1)Cc1cccc(-c3cc(=O)cc(N4CCOCC4)o3)c1S2 [Compound 66],< 200
22,"O=c1cc(-c2cccc3c2Oc2ccccc2S3)oc(N2CCOCC2)c1 [Compound 5, 2-Phenoxathiin-4-yl-6-morpholin-4-yl-pyran-4-one]",< 200
23,CN1CCCC1CCNC(=O)c1ccc2c(c1)Sc1cccc(-c3cc(=O)cc(N4CCOCC4)o3)c1S2 (stereo not drawn) [Compound 168],< 200
24,COc1cc(C(=O)Nc2ccc3c(c2)Cc2cccc(-c4cc(=O)cc(N5CCOCC5)o4)c2S3)cc(OC)c1OC [Compound 38],< 200
25,O=C(Nc1ccc2c(c1)Cc1cccc(-c3cc(=O)cc(N4CCOCC4)o3)c1S2)c1ccno1 [Compound 47],< 200
26,O=C(NC1CCCC1)c1ccc2c(c1)Sc1cccc(-c3cc(=O)cc(N4CCOCC4)o3)c1S2 [Compound 155],< 200
27,CSc1ncccc1C(=O)Nc1ccc(-c2cc(=O)cc(N3CCOCC3)o2)c2c1Cc1ccccc1S2 [Compound 122],< 200
